We go through two molecules from patent US12263156B2, “Use of small molecule inhibitors of the BfrB:Bfd interaction in biofilms” (priority 2020, dated 2025).

Series [1] deals with EYFP-expressing P. aeruginosa PAO1 biofilms. Briefly: Flow cell biofilm assay (CLSM imaging, COMSTAT biomass). The series is classed as cell-based, Pseudomonas aeruginosa. The conditions noted are these: 3-day old biofilms, 24 h; KM-5-25 40 and 80 μM, KM-5-66 15, 30 and 50 μM. The protocol:
ACS Infect. Dis. […] The experimental shear stress was 0.14-dyn/cm^2 (shear rate=14 s^−1, pressure=7.1 mbar, flow rate=0.4 mL/min) and the switch time was set to 540 s. […] During biofilm growth and challenge with antibacterial, the culture medium in the reservoirs was removed every 12 hours and replaced with fresh pre-warmed medium. […] The biofilms were imaged with the aid of a Leica TCS SP8 confocal microscope (Leica Microsystems, Germany) using a HC PL apo CS2 63×/1.4 oil objective. […] Image stacks were acquired with a z-step size of 0.3 μm at randomly chosen positions. The Leica Application Suite X (LAS-X) software was used for image stack processing.^54 Quantitative analysis of biofilm biomass was performed using the COMSTAT computer program^54 and the Otsu method of automatic thresholding.^85
The treated biofilms were counterstained with the cell impermeable fluorescent nucleic acid dye Sytox Red and then imaged with the aid of confocal laser scanning microscopy (CLSM).

Series [2] has as its system P. aeruginosa clinical isolate PA_1076058. Type of series: cell-based, Pseudomonas aeruginosa. The conditions noted are these: 2-day old pellicles, 24 h, 1.2× the IC50 (KM-5-25 80 μM; KM-5-66 50 μM). The protocol:
(§1) Pellicle biofilms were grown as described above.
(§2) To investigate whether the compounds are also active against other strains of P. aeruginosa, pellicles of several clinical isolates from JMI Laboratories were cultured. […] To gain a broader understanding of the potential activity spectrum of the BfrB-Bfd inhibitors against P. aeruginosa strains, BLASTp^62 was used to find homologs of BfrB and Bfd sequences in the >4,400 P. aeruginosa genomes in the Pseudomonas Genome Database.^63 The results reveal two important facts: (i) The bfrB and bfd genes are adjacent to one another in all the P. aeruginosa strains, (ii) There is an extremely high level of conservation among the bfd and bfrB sequences. These findings evidence that the compounds of the present technology are broadly active against P. aeruginosa.

Series [3] concerns P. aeruginosa clinical isolate PA_1081725. Type of series: cell-based, Pseudomonas aeruginosa. The conditions noted are these: 2-day old pellicles, 24 h, 1.2× the IC50 (KM-5-25 80 μM; KM-5-66 50 μM). The protocol:
as §1, §2

Series [4] has as its system EYFP-expressing P. aeruginosa PAO1 pellicle biofilms. The series can be described thus: Determination of viable cells (CFU/mL) in pellicle biofilms. The conditions noted are these: for % survival relative to cells in the pre-treated biofilm / viable cell count as % of the cells in the untreated pellicle / % survival, combination treatment: 24 h; for viable cell count as % of the cells in the untreated pellicle: KM-5-25 40 μM, KM-5-66 20 μM; for relative compound activity (rank order): pellicles treated 24 h with 50 μM of each analog. The method, then: Pellicle biofilms of EYFP-expressing P. aeruginosa PAO1 or clinical isolates were grown in PI media supplemented with 20 μM Fe. Starter cultures were diluted to OD600=0.001 in 4 mL media, placed in 35×10 mm petri dishes and incubated statically at 30° C. for 48 hours. The pellicles were transferred onto circular (1.5 cm diameter) glass coverslips by gently allowing the surface of a coverslip to contact a pellicle. The pellicle-adhered coverslip was washed in PBS and then deposited on top of 1.5 mL of AB challenge media contained in a well of a 12-well microplate, with the pellicle exposed to the media. […] The coverslip-adhered pellicles were exposed to challenge media at 30° C. for 24 hours, changing the challenge media every 12 hours by transferring the pellicle-adhered coverslip to a new plate containing pre-warmed challenge media.
Pellicle biofilms were grown as described above. Planktonic and loosely attached cells were washed (3 times) by immersing the coverslip-adhered pellicles (biofilm facing up) into a well of a 12-well plate containing 3 mL of PBS, and incubating (5 min) with gentle rocking. To remove the pellicle from the coverslip, break the extracellular matrix and release cells from the biofilm, the coverslip-adhered pellicle was placed in a 50 mL conical tube containing a 2 mL suspension of zirconia beads (0.1 mm diameter, BioSpec Products), 10 mL PBS, 0.2 μg/mL alginate lyase and 0.2 μg/mL DNAse. The resultant mixture was incubated at room temperature for 3 min, followed by vigorous vortexing for 4 min. After sedimentation of the zirconia beads, a 100 μL aliquot was used for serial dilution and plating on PIA plates for subsequent enumeration of viable cells (CFU/mL).
To assess the efficacy of antibiotics and compounds with an approach complementary to imaging with CLSM, dispersing biofilm cells for subsequent enumeration of viable cells (CFU/mL) was resorted to. […] The biofilms were then harvested, and the cells dispersed into sterile PBS by vortexing in the presence of zirconia beads, prior to plating the cell suspensions for subsequent enumeration of CFU/mL. […] A characteristic of cells in the VBNC state is their inability to develop into colonies on routine culture media, even though the cells remain viable for long periods of time.^58-59 Evidence that bacterial cells can enter the VBNC has been obtained by several distinct methods,^59 one of which is the utilization of bacteria engineered to constitutively express bioluminescent proteins, and using the bioluminescence as a reporter of metabolic activity.

Setting [5] is: 0.6× the IC50 (KM-5-25 40 μM; KM-5-66 30 μM).
The mark [6] stands for this setting: 1.2× the IC50 (KM-5-25 80 μM; KM-5-66 50 μM).
The mark [7] stands for this setting: analog at 1.2× the IC50 combined with colistin at 25× the MIC.
Where [8] appears, read: analog at 1.2× the IC50 combined with colistin at 25× the MIC (20 μM).
Setting [9] is: analog at 1.2× the IC50 combined with colistin at 50× the MIC.
Where [10] appears, read: analog at 1.2× the IC50 combined with colistin at 50× the MIC (40 μM).
Where [11] appears, read: analog at 1.2× the IC50 combined with tobramycin at 25× the MIC.
Setting [12] is: analog at 1.2× the IC50 combined with tobramycin at 50× the MIC.

Regarding `O=C1NC(=O)c2c(NCc3cc(Cl)ccc3O)cccc21` [KM-5-25], the “killing of flow cell biofilm cells (CLSM images)” value in series [1] is reported as “concentration dependent manner”. Besides, the “reduction of viable cells” value in series [2] and in series [3] was “approximately 80%” in each case. Further, the “% survival relative to cells in the pre-treated biofilm” value was around 38% in series [4] (setting [5]) and around 25% in series [4] (setting [6]). For the same molecule, the “viable cell count as % of the cells in the untreated pellicle” value in series [4] is given as 42%. Besides, the “log reduction of viable cells relative to colistin alone” value in series [4] (setting [7]) is recorded as around 1 log; in series [4] (setting [9]), around 0.7 log. Moreover, the “% survival, combination treatment” value in series [4] (setting [8]) was around 1%; in series [4] (setting [10]) it was around 0.5%; in series [4] (setting [11]) it was around 0.5%; in series [4] (setting [12]), around 0.003%. Further, the “log reduction of viable cells relative to tobramycin alone” value in series [4] (setting [11]) is “approximately 2.5 log”; in series [4] (setting [12]) it was around 4.7 log. In addition, in series [4], the “relative compound activity (rank order)” value is listed as “KM-5-66>KM-5-25>16>11”.

Turning to `O=C1NC(=O)c2c(NCCCc3cc(O)cc(Cl)c3)cccc21` [KM-5-66], the “killing of flow cell biofilm cells (CLSM images)” value in series [1] was “concentration dependent manner”. The “reduction of viable cells” value in series [2] and in series [3] was “approximately 80%” each time. In addition, the “% survival relative to cells in the pre-treated biofilm” value is listed as “approximately 57%” in series [4] (0.3× the IC50 (KM-5-66 15 μM)), around 21% in series [4] (setting [5]) and around 15% in series [4] (setting [6]). Further, the “viable cell count as % of the cells in the untreated pellicle” value in series [4] is given as 37%. The entries for the “log reduction of viable cells relative to colistin alone” value in series [4] (setting [7]) and in series [4] (setting [9]) were “approximately 1.7 log” and around 1.9 log, respectively. Besides, the “% survival, combination treatment” value is around 0.3% in series [4] (setting [8]), around 0.02% in series [4] (setting [10]), 5% in series [4] (setting [11]) and 1% in series [4] (setting [12]). In addition, the figures for the “log reduction of viable cells relative to tobramycin alone” value in series [4] (setting [11]) and in series [4] (setting [12]) were “approximately 1.5 log” and around 2 log, respectively. The “relative compound activity (rank order)” value in series [4] is reported as “KM-5-66>KM-5-25>16>11”.
